This note sets out measurements from patent publication US20230339916A1, “PLANT GROWTH REGULATOR COMPOUNDS” (SYNGENTA CROP PROTECTION AG, priority 2020, published 2023).

SMILES strings stand for the structures.

The assay deals with Corn leaf discs (variety Multitop). The assay can be described thus: Dark induced senescence of corn leaf. The note with it: Zea mays, foliar, 192 h; corn leaf discs in the dark, 23° C., 75% humidity, 8 days; 100 μM-0.0001 μM, 0.5% DMSO; image analysis; read-out: IC50 (concentration at which 50% senescence was achieved). It counts as in vivo. The protocol: Corn plants of variety Multitop were grown in a greenhouse with relative 75% humidity and at 23-25° C. for 6 weeks. 1.4 cm diameter leaf discs were placed into 24-well plates containing test compounds in a concentration gradient (100 μM-0.0001 μM) at a final concentration of 0.5% DMSO. Each concentration was tested in 12 replicates. Plates were sealed with seal foil. The foil was pierced to provide gas exchange in each well. The plates were placed into the completely dark climatic chamber. Plates were incubated in the chamber with 75% humidity and at 23° C. for 8 days. On days 0, 5, 6, 7 and 8 photographs were taken of each plate, and image analysis conducted with a macro developed using the ImageJ software. The image analysis was used to determine the concentration at which 50% senescence was achieved (IC50), see Table 3. The lower the value, the higher senescence induction potency.
With `CCOC(=O)/C(=C/OC1C=C(C)C(=O)O1)n1ccc2ccccc21` (centres unmarked) [Compound I-1-Z, ethyl (Z)-2-indol-1-yl-3-[(4-methyl-5-oxo-2H-furan-2-yl)oxy]prop-2-enoate], the IC50 was under 3000 nM.

With `CCOC(=O)/C(=C/OC1C=C(C)C(=O)O1)n1ccc2cc(C(F)(F)F)ccc21` (centres unmarked) [Compound I-2-Z, ethyl (Z)-3-[(4-methyl-5-oxo-2H-furan-2-yl)oxy]-2-[5-(trifluoromethyl)indol-1-yl]prop-2-enoate], the IC50 is under 3000 nM.

As for `CCOC(=O)/C(=C/OC1C=C(C)C(=O)O1)n1ccc2cc(F)ccc21` (centres unmarked) [Compound I-3-Z, ethyl (Z)-2-(5-fluoroindol-1-yl)-3-[(4-methyl-5-oxo-2H-furan-2-yl)oxy]prop-2-enoate], the IC50 is under 3000 nM.

For `CCOC(=O)/C(=C/OC1C=C(C)C(=O)O1)n1ccc2cc(-c3ccccc3)ccc21` (centres unmarked) [Compound I-5-Z, ethyl (Z)-3-[(4-methyl-5-oxo-2H-furan-2-yl)oxy]-2-(5-phenylindol-1-yl)prop-2-enoate], the IC50 was under 3000 nM.

In the case of `CCOC(=O)/C(=C/OC1OC(=O)C(C)=C1C)n1ccc2ccccc21` (centres unmarked) [Compound I-7-Z, ethyl (Z)-3-[(3,4-dimethyl-5-oxo-2H-furan-2-yl)oxy]-2-indol-1-yl-prop-2-enoate], the IC50 is under 3000 nM.

Consider `CCOC(=O)/C(=C/OC1OC(=O)C(C)=C1C)n1ccc2cc(C(F)(F)F)ccc21` (centres unmarked) [Compound I-8-Z, ethyl (Z)-3-[(3,4-dimethyl-5-oxo-2H-furan-2-yl)oxy]-2-[5-(trifluoromethyl)indol-1-yl]prop-2-enoate], for which the IC50 was under 3000 nM.

Take `CCOC(=O)/C(=C/OC1OC(=O)C(C)=C1C)n1ccc2cc(F)ccc21` (centres unmarked) [Compound I-9-Z, ethyl (Z)-3-[(3,4-dimethyl-5-oxo-2H-furan-2-yl)oxy]-2-(5-fluoroindol-1-yl)prop-2-enoate]: the IC50 is under 3000 nM.

Consider `CCOC(=O)/C(=C/OC1OC(=O)C(C)=C1C)n1ccc2cc(-c3ccccc3)ccc21` (centres unmarked) [Compound I-11-Z, ethyl (Z)-3-[(3,4-dimethyl-5-oxo-2H-furan-2-yl)oxy]-2-(5-phenylindol-1-yl)prop-2-enoate], for which the IC50 is under 3000 nM.

`CCOC(=O)/C(=C/OC1C=C(C)C(=O)O1)n1cc(C#N)c2ccccc21` (centres unmarked) [Compound I-25-Z, ethyl (Z)-2-(3-cyanoindol-1-yl)-3-[(4-methyl-5-oxo-2H-furan-2-yl)oxy]prop-2-enoate]: the IC50 is under 3000 nM.

With `CCOC(=O)/C(=C/OC1OC(=O)C(C)=C1C)n1cc(C#N)c2ccccc21` (centres unmarked) [Compound I-26-Z, ethyl (Z)-2-(3-cyanoindol-1-yl)-3-[(3,4-dimethyl-5-oxo-2H-furan-2-yl)oxy]prop-2-enoate], the IC50 was under 3000 nM.

Take `CCOC(=O)/C(=C/OC1C=C(C)C(=O)O1)n1cc(C)c2ccccc21` (centres unmarked) [Compound I-27-Z, ethyl (Z)-2-(3-methylindol-1-yl)-3-[(4-methyl-5-oxo-2H-furan-2-yl)oxy]prop-2-enoate]: the IC50 was under 3000 nM.

As for `CCOC(=O)/C(=C/OC1OC(=O)C(C)=C1C)n1cc(C)c2ccccc21` (centres unmarked) [Compound I-28-Z, ethyl (Z)-3-[(3,4-dimethyl-5-oxo-2H-furan-2-yl)oxy]-2-(3-methylindol-1-yl)prop-2-enoate], the IC50 was under 3000 nM.

For `CCOC(=O)/C(=C/OC1C=C(C)C(=O)O1)n1c(C)c(C)c2ccccc21` (centres unmarked) [Compound I-29-Z, ethyl (Z)-2-(2,3-dimethylindol-1-yl)-3-[(4-methyl-5-oxo-2H-furan-2-yl)oxy]prop-2-enoate], the IC50 was under 3000 nM.

For `CCOC(=O)/C(=C/OC1OC(=O)C(C)=C1C)n1c(C)c(C)c2ccccc21` (centres unmarked) [Compound I-30-Z, ethyl (Z)-2-(2,3-dimethylindol-1-yl)-3-[(3,4-dimethyl-5-oxo-2H-furan-2-yl)oxy]prop-2-enoate], the IC50 was under 3000 nM.

On to `CCOC(=O)/C(=C/OC1C=C(C)C(=O)O1)n1nnc2ccccc21` (centres unmarked) [Compound I-31-Z, ethyl (Z)-2-(benzotriazol-1-yl)-3-[(4-methyl-5-oxo-2H-furan-2-yl)oxy]prop-2-enoate], for which the IC50 is under 3000 nM.

For `CNC(=O)/C(=C\OC1C=C(C)C(=O)O1)n1nnc2ccccc21` (centres unmarked) [Compound I-33-E, (E)-2-(benzotriazol-1-yl)-N-methyl-3-[(4-methyl-5-oxo-2H-furan-2-yl)oxy]prop-2-enamide], the IC50 is under 3000 nM.

`CC1=CC(O/C=C(/C(=O)N(C)C)n2nnc3ccccc32)OC1=O` (centres unmarked) [Compound I-34-Z, (Z)-2-(benzotriazol-1-yl)-N,N-dimethyl-3-[(4-methyl-5-oxo-2H-furan-2-yl)oxy]prop-2-enamide]: the IC50 is under 3000 nM.

As for `CCOC(=O)/C(=C/OC1OC(=O)C(C)=C1C)n1nnc2ccccc21` (centres unmarked) [Compound I-35-Z, ethyl (Z)-2-(benzotriazol-1-yl)-3-[(3,4-dimethyl-5-oxo-2H-furan-2-yl)oxy]prop-2-enoate], the IC50 is under 3000 nM.

As for `CNC(=O)/C(=C/OC1OC(=O)C(C)=C1C)n1nnc2ccccc21` (centres unmarked) [Compound I-37-Z, (Z)-2-(benzotriazol-1-yl)-3-[(3,4-dimethyl-5-oxo-2H-furan-2-yl)oxy]-N-methyl-prop-2-enamide], the IC50 is under 3000 nM.

In the case of `CCOC(=O)/C(=C/OC1C=C(C)C(=O)O1)n1ncc2ccccc21` (centres unmarked) [Compound I-42-Z, ethyl (Z)-2-indazol-1-yl-3-[(4-methyl-5-oxo-2H-furan-2-yl)oxy]prop-2-enoate], the IC50 was under 3000 nM.

On to `CC1=CC(O/C=C(/C#N)n2ncc3ccccc32)OC1=O` (centres unmarked) [Compound I-43-Z, (Z)-2-indazol-1-yl-3-[(4-methyl-5-oxo-2H-furan-2-yl)oxy]prop-2-enenitrile], for which the IC50 is under 3000 nM.

With `CCOC(=O)/C(=C/OC1OC(=O)C(C)=C1C)n1ncc2ccccc21` (centres unmarked) [Compound I-46-Z, ethyl (Z)-3-[(3,4-dimethyl-5-oxo-2H-furan-2-yl)oxy]-2-indazol-1-yl-prop-2-enoate], the IC50 was under 3000 nM.

Consider `CC1=C(C)C(O/C=C(\C#N)n2ncc3ccccc32)OC1=O` (centres unmarked) [Compound I-47-E, (E)-3-[(3,4-dimethyl-5-oxo-2H-furan-2-yl)oxy]-2-indazol-1-yl-prop-2-enenitrile], for which the IC50 is under 3000 nM.

`CC1=C(C)C(O/C=C(/C#N)n2ncc3ccccc32)OC1=O` (centres unmarked) [Compound I-47-Z, (Z)-3-[(3,4-dimethyl-5-oxo-2H-furan-2-yl)oxy]-2-indazol-1-yl-prop-2-enenitrile]: the IC50 is under 3000 nM.

Turning to `CCOC(=O)/C(=C/OC1C=C(C)C(=O)O1)n1nc(F)c2ccccc21` (centres unmarked) [Compound I-50-Z, ethyl (Z)-2-(3-fluoroindazol-1-yl)-3-[(4-methyl-5-oxo-2H-furan-2-yl)oxy]prop-2-enoate], the IC50 is under 3000 nM.

Regarding `CCOC(=O)/C(=C/OC1OC(=O)C(C)=C1C)n1nc(F)c2ccccc21` (centres unmarked) [Compound I-51-Z, ethyl (Z)-3-[(3,4-dimethyl-5-oxo-2H-furan-2-yl)oxy]-2-(3-fluoroindazol-1-yl)prop-2-enoate], the IC50 is under 3000 nM.

For `CCOC(=O)/C(=C/OC1C=C(C)C(=O)O1)n1cnc2ccccc21` (centres unmarked) [Compound I-56-Z, ethyl (Z)-2-(benzimidazol-1-yl)-3-[(4-methyl-5-oxo-2H-furan-2-yl)oxy]prop-2-enoate], the IC50 was under 3000 nM.

As to `CCOC(=O)/C(=C/OC1OC(=O)C(C)=C1C)n1cnc2ccccc21` (centres unmarked) [Compound I-57-Z, ethyl (Z)-2-(benzimidazol-1-yl)-3-[(3,4-dimethyl-5-oxo-2H-furan-2-yl)oxy]prop-2-enoate], the IC50 is under 3000 nM.

`CCOC(=O)/C(=C/OC1OC(=O)C(C)=C1C)n1c(C)nc2ccccc21` (centres unmarked) [Compound I-59-Z, ethyl (Z)-3-[(3,4-dimethyl-5-oxo-2H-furan-2-yl)oxy]-2-(2-methylbenzimidazol-1-yl)prop-2-enoate]: the IC50 was under 3000 nM.

On to `CCOC(=O)/C(=C/OC1C=C(C)C(=O)O1)n1cnc2c(N(C)C)nc(F)nc21` (centres unmarked) [Compound I-60-Z, ethyl (Z)-2-[6-(dimethylamino)-2-fluoro-purin-9-yl]-3-[(4-methyl-5-oxo-2H-furan-2-yl)oxy]prop-2-enoate], for which the IC50 is under 3000 nM.

Turning to `CCOC(=O)/C(=C/OC1OC(=O)C(C)=C1C)n1cnc2c(N(C)C)nc(F)nc21` (centres unmarked) [Compound I-61-Z, ethyl (Z)-2-[6-(dimethylamino)-2-fluoro-purin-9-yl]-3-[(3,4-dimethyl-5-oxo-2H-furan-2-yl)oxy]prop-2-enoate], the IC50 is under 3000 nM.

As for `CCOC(=O)/C(=C/OC1C=C(C)C(=O)O1)n1ccc2cncnc21` (centres unmarked) [Compound I-62-Z, ethyl (Z)-3-[(4-methyl-5-oxo-2H-furan-2-yl)oxy]-2-pyrrolo[2,3-d]pyrimidin-7-yl-prop-2-enoate], the IC50 is under 3000 nM.

For the compound `CCOC(=O)/C(=C/OC1C=C(C)C(=O)O1)n1c(=O)sc2ccccc21` (centres unmarked) [Compound I-64-Z, ethyl (Z)-3-[(4-methyl-5-oxo-2H-furan-2-yl)oxy]-2-(2-oxo-1,3-benzothiazol-3-yl)prop-2-enoate], the IC50 is under 3000 nM.

In the case of `CCOC(=O)/C(=C/OC1OC(=O)C(C)=C1C)n1c(=O)sc2ccccc21` (centres unmarked) [Compound I-65-Z], the IC50 was under 3000 nM.

Regarding `CCOC(=O)/C(=C/OC1C=C(C)C(=O)O1)N1C(=O)C2(CC2)c2ccccc21` (centres unmarked) [Compound I-66-Z, ethyl (Z)-3-[(4-methyl-5-oxo-2H-furan-2-yl)oxy]-2-(2′-oxospiro[cyclopropane-1,3′-indoline]-1′-yl)prop-2-enoate], the IC50 is under 3000 nM.
